Experimental data taken from ChEMBL document CHEMBL1145395, “De novo design of selective antibiotic peptides by incorporation of unnatural amino acids” (J Med Chem, 2007).
≈ marks a conversion by molar mass, not a printed value. Calls of active or inactive are those of the source. The rule behind the calls is not given here. Starred links: 1 amine or outer side, 2 acyl side, 3 side chain; linkers in the order of their positions; H or OH if unused. Non-standard residues stand in square brackets, D forms with d. Residues, ends and D or L forms follow the SMILES beside them. ξ: configuration not given here. Pro(3ξ,4ξ-(CH2)4) = O=C(O)[C@H]1NCC2CCCCC21; Oic = O=C(O)[C@@H]1C[C@@H]2CCCC[C@@H]2N1; X1 = O=C([C@@H]1CN([*:1])C2CCCCC21)[*:2]; Phe(4-F) = N[C@@H](Cc1ccc(F)cc1)C(=O)O; Tic = O=C(O)[C@@H]1Cc2ccccc2CN1; Dap = NC[C@H](N)C(=O)O; Ahx = NCCCCCC(=O)O; GABA = NCCCC(=O)O; βAla = NCCC(=O)O

How the values were obtained:
Salmonella typhimurium = experiment: Antibacterial activity against Salmonella Typhimurium ATCC 13311; format: functional; conditions: for MIC: Salmonella enterica
Staphylococcus aureus = experiment: Antibacterial activity against methicillin/gentamicin/tetracycline resistant Staphylococcus aureus ATCC 33592; format: functional
Mycobacterium = experiment: Antibacterial activity against Mycobacterium ranae ATCC 110; format: functional
Bacillus subtilis = experiment: Antibacterial activity against Bacillus subtilis ATCC 43223; format: functional
[1] = Toxicity to mouse RBC assessed as hemolytic activity at 100 uM; format: cell-based, Erythrocyte; conditions: red blood cells, read-out: Activity
[2] = Toxicity to mouse RBC assessed as hemolytic activity at 25 uM; format: cell-based, Erythrocyte; conditions: red blood cells, read-out: Activity

Structure (SMILES) | Activity (Salmonella typhimurium; Salmonella enterica subsp. enterica serovar Typhimurium) | MIC (Staphylococcus aureus) | MIC (Mycobacterium) | MIC (Bacillus subtilis) | hemolysis at 100 µM [1] | hemolysis at 25 µM [2] | MIC (Salmonella typhimurium) | Activity (Staphylococcus aureus)
CC(C)C[C@H](NC(=O)[C@@H](N)CCCCN)C(=O)N1Cc2ccccc2C[C@H]1C(=O)N1C[C@@H](C(=O)N[C@@H](CCCCN)C(=O)N2Cc3ccccc3C[C@H]2C(=O)N2C[C@@H](C(=O)N[C@@H](Cc3ccccc3)C(=O)N3Cc4ccccc4C[C@H]3C(=O)N3C[C@@H](C(=O)N[C@@H](CCCCN)C(=O)N4Cc5ccccc5C[C@H]4C(=O)N4C[C@@H](C(=O)N[C@@H](Cc5ccccc5)C(=O)N5Cc6ccccc6C[C@H]5C(=O)N5C[C@@H](C(=O)N[C@@H](CCCCN)C(=O)N6Cc7ccccc7C[C@H]6C(=O)N6C[C@@H](C(=O)N[C@@H](CCCCN)C(=O)N[C@@H](CCCNC(=N)N)C(N)=O)C7CCCCC76)C6CCCCC65)C5CCCCC54)C4CCCCC43)C3CCCCC32)C2CCCCC21 (some centres undefined) (H-KL[Tic][X1]K[Tic][X1]F[Tic][X1]K[Tic][X1]F[Tic][X1]K[Tic][X1]KR-NH2) | inactive | 10 µM (≈ 30.8 µg/mL) | 30 µM (≈ 92.5 µg/mL) | 1 µM (≈ 3.08 µg/mL) | 63% |  |  | 
CC(=O)NCC(=O)N[C@@H](Cc1ccccc1)C(=O)N1Cc2ccccc2C[C@H]1C(=O)N1CC2CCCCC2[C@H]1C(=O)NCC(=O)N[C@@H](CCCCN)C(=O)N1Cc2ccccc2C[C@H]1C(=O)N1CC2CCCCC2[C@H]1C(=O)NCC(=O)N[C@@H](Cc1ccccc1)C(=O)N1Cc2ccccc2C[C@H]1C(=O)N1CC2CCCCC2[C@H]1C(=O)NCC(=O)N[C@@H](CCCCN)C(=O)N1Cc2ccccc2C[C@H]1C(=O)N[C@@H](CCCCN)C(=O)N[C@@H](CCCCN)C(=O)N[C@@H](CCCCN)C(=O)N[C@@H](CCCCN)C(=O)N[C@@H](CCCCN)C(N)=O (some centres undefined) (Ac-GF[Tic][Pro(3ξ,4ξ-(CH2)4)]GK[Tic][Pro(3ξ,4ξ-(CH2)4)]GF[Tic][Pro(3ξ,4ξ-(CH2)4)]GK[Tic]KKKKK-NH2) |  |  |  |  | 24.9% | 18.9% |  | 
CC(=O)NCCCC(=O)N[C@@H](Cc1ccccc1)C(=O)N1Cc2ccccc2C[C@H]1C(=O)N1[C@H](C(=O)NCCCC(=O)N[C@@H](CCCCN)C(=O)N2Cc3ccccc3C[C@H]2C(=O)N2[C@H](C(=O)NCCCC(=O)N[C@@H](Cc3ccccc3)C(=O)N3Cc4ccccc4C[C@H]3C(=O)N3[C@H](C(=O)NCCCC(=O)N[C@@H](CCCCN)C(=O)N4Cc5ccccc5C[C@H]4C(=O)N[C@@H](CCCCN)C(=O)N[C@@H](CCCCN)C(=O)N[C@@H](CCCCN)C(=O)N[C@@H](CCCCN)C(=O)N[C@@H](CCCCN)C(N)=O)C[C@@H]4CCCC[C@@H]43)C[C@@H]3CCCC[C@@H]32)C[C@@H]2CCCC[C@@H]21 (Ac-[GABA]F[Tic][Oic][GABA]K[Tic][Oic][GABA]F[Tic][Oic][GABA]K[Tic]KKKKK-NH2) |  |  |  |  | 29.7% | 10.5% |  | 
CC(=O)NCCCCCC(=O)N[C@@H](Cc1ccccc1)C(=O)N1Cc2ccccc2C[C@H]1C(=O)N1CC2CCCCC2[C@H]1C(=O)NCCCCCC(=O)N[C@@H](CCCCN)C(=O)N1Cc2ccccc2C[C@H]1C(=O)N1CC2CCCCC2[C@H]1C(=O)NCCCCCC(=O)N[C@@H](Cc1ccccc1)C(=O)N1Cc2ccccc2C[C@H]1C(=O)N1CC2CCCCC2[C@H]1C(=O)NCCCCCC(=O)N[C@@H](CCCCN)C(=O)N1Cc2ccccc2C[C@H]1C(=O)N[C@@H](CCCCN)C(=O)N[C@@H](CCCCN)C(=O)N[C@@H](CCCCN)C(=O)N[C@@H](CCCCN)C(N)=O (some centres undefined) (Ac-[Ahx]F[Tic][Pro(3ξ,4ξ-(CH2)4)][Ahx]K[Tic][Pro(3ξ,4ξ-(CH2)4)][Ahx]F[Tic][Pro(3ξ,4ξ-(CH2)4)][Ahx]K[Tic]KKKK-NH2) |  | 10 µM (≈ 26.7 µg/mL) | 3 µM (≈ 8 µg/mL) | 1 µM (≈ 2.67 µg/mL) | 44.7% | 26.6% | 10 µM (≈ 26.7 µg/mL) | 
CC(=O)NCC(=O)N[C@@H](Cc1ccccc1)C(=O)NCC(=O)N1CC2CCCCC2[C@H]1C(=O)NCC(=O)N[C@@H](CCCCN)C(=O)NCC(=O)N1CC2CCCCC2[C@H]1C(=O)NCC(=O)N[C@@H](Cc1ccccc1)C(=O)NCC(=O)N1CC2CCCCC2[C@H]1C(=O)NCC(=O)N[C@@H](CCCCN)C(=O)NCC(=O)N[C@@H](CCCCN)C(=O)N[C@@H](CCCCN)C(=O)N[C@@H](CCCCN)C(=O)N[C@@H](CCCCN)C(N)=O (some centres undefined) (Ac-GFG[Pro(3ξ,4ξ-(CH2)4)]GKG[Pro(3ξ,4ξ-(CH2)4)]GFG[Pro(3ξ,4ξ-(CH2)4)]GKGKKKK-NH2) |  |  |  |  | 3.3% | 3.3% |  | 
CC(=O)NCC(=O)N[C@@H](Cc1ccccc1)C(=O)N1Cc2ccccc2C[C@H]1C(=O)NCC(=O)N[C@@H](CCCCN)C(=O)N1Cc2ccccc2C[C@H]1C(=O)NCC(=O)N[C@@H](Cc1ccccc1)C(=O)N1Cc2ccccc2C[C@H]1C(=O)NCC(=O)N[C@H](CCCCN)C(=O)N1Cc2ccccc2C[C@H]1C(=O)N[C@@H](CCCCN)C(=O)N[C@@H](CCCCN)C(=O)N[C@@H](CCCCN)C(=O)N[C@@H](CCCCN)C(N)=O |  |  | 30 µM (≈ 59.6 µg/mL) | 10 µM (≈ 19.9 µg/mL) | 6% | 4.9% | 100 µM (≈ 199 µg/mL) | inactive
NCCCC[C@H](NC(=O)[C@H](CCCCN)NC(=O)[C@H](CCCCN)NC(=O)[C@H](CCCCN)NC(=O)[C@@H]1Cc2ccccc2CN1C(=O)[C@H](CCCCN)NC(=O)CNC(=O)[C@@H]1C[C@@H]2CCCC[C@@H]2N1C(=O)[C@@H]1Cc2ccccc2CN1C(=O)[C@H](Cc1ccccc1)NC(=O)CNC(=O)[C@@H]1C[C@@H]2CCCC[C@@H]2N1C(=O)[C@@H]1Cc2ccccc2CN1C(=O)[C@H](CCCCN)NC(=O)CNC(=O)[C@@H]1C[C@@H]2CCCC[C@@H]2N1C(=O)[C@@H]1Cc2ccccc2CN1C(=O)[C@H](Cc1ccccc1)NC(=O)CN)C(N)=O (H-GF[Tic][Oic]GK[Tic][Oic]GF[Tic][Oic]GK[Tic]KKKK-NH2) |  |  |  |  | 33.4% | 14.3% |  | 
CC(=O)N[C@@H](Cc1ccccc1)C(=O)N1Cc2ccccc2C[C@H]1C(=O)N1CC2CCCCC2[C@H]1C(=O)N[C@@H](CCCCN)C(=O)N1Cc2ccccc2C[C@H]1C(=O)N1CC2CCCCC2[C@H]1C(=O)N[C@@H](Cc1ccccc1)C(=O)N1Cc2ccccc2C[C@H]1C(=O)N1CC2CCCCC2[C@H]1C(=O)N[C@@H](CCCCN)C(=O)N1Cc2ccccc2C[C@H]1C(=O)N[C@@H](CCCCN)C(=O)N[C@@H](CCCCN)C(=O)N[C@@H](CCCCN)C(=O)N[C@@H](CCCCN)C(=O)N[C@@H](CCCCN)C(=O)N[C@@H](CCCCN)C(N)=O (some centres undefined) (Ac-F[Tic][Pro(3ξ,4ξ-(CH2)4)]K[Tic][Pro(3ξ,4ξ-(CH2)4)]F[Tic][Pro(3ξ,4ξ-(CH2)4)]K[Tic]KKKKKK-NH2) |  | 3 µM (≈ 7.41 µg/mL) | 3 µM (≈ 7.41 µg/mL) | 1 µM (≈ 2.47 µg/mL) | 41.3% | 33.5% | 10 µM (≈ 24.7 µg/mL) | 
CC(=O)NCC(=O)N[C@@H](Cc1ccccc1)C(=O)N1CC2CCCCC2[C@H]1C(=O)NCC(=O)N[C@@H](CCCCN)C(=O)N1CC2CCCCC2[C@H]1C(=O)NCC(=O)N[C@@H](Cc1ccccc1)C(=O)N1CC2CCCCC2[C@H]1C(=O)NCC(=O)N[C@@H](CCCCN)C(=O)N[C@@H](CCCCN)C(=O)N[C@@H](CCCCN)C(=O)N[C@@H](CCCCN)C(=O)N[C@@H](CCCCN)C(N)=O (some centres undefined) (Ac-GF[Pro(3ξ,4ξ-(CH2)4)]GK[Pro(3ξ,4ξ-(CH2)4)]GF[Pro(3ξ,4ξ-(CH2)4)]GKKKKK-NH2) |  |  |  |  | 5.9% | 3.2% |  | 
CC(=O)NCC(=O)N[C@@H](Cc1ccccc1)C(=O)N[C@@H](Cc1ccccc1)C(=O)N1CC2CCCCC2[C@H]1C(=O)NCC(=O)N[C@@H](CCCCN)C(=O)N[C@@H](Cc1ccccc1)C(=O)N1CC2CCCCC2[C@H]1C(=O)NCC(=O)N[C@@H](Cc1ccccc1)C(=O)N[C@@H](Cc1ccccc1)C(=O)N1CC2CCCCC2[C@H]1C(=O)NCC(=O)N[C@@H](CCCCN)C(=O)N[C@@H](Cc1ccccc1)C(=O)N[C@@H](CCCCN)C(=O)N[C@@H](CCCCN)C(=O)N[C@@H](CCCCN)C(=O)N[C@@H](CCCCN)C(N)=O (some centres undefined) (Ac-GFF[Pro(3ξ,4ξ-(CH2)4)]GKF[Pro(3ξ,4ξ-(CH2)4)]GFF[Pro(3ξ,4ξ-(CH2)4)]GKFKKKK-NH2) |  |  |  |  | 27.3% | 8.9% |  | 
CC(=O)NCC(=O)N[C@@H](Cc1ccccc1)C(=O)N1Cc2ccccc2C[C@H]1C(=O)NCC(=O)NCC(=O)N[C@@H](CCCCN)C(=O)N1Cc2ccccc2C[C@H]1C(=O)NCC(=O)NCC(=O)N[C@@H](Cc1ccccc1)C(=O)N1Cc2ccccc2C[C@H]1C(=O)NCC(=O)NCC(=O)N[C@@H](CCCCN)C(=O)N1Cc2ccccc2C[C@H]1C(=O)N[C@@H](CCCCN)C(=O)N[C@@H](CCCCN)C(=O)N[C@@H](CCCCN)C(=O)N[C@@H](CCCCN)C(N)=O (Ac-GF[Tic]GGK[Tic]GGF[Tic]GGK[Tic]KKKK-NH2) |  |  | 30 µM (≈ 64.8 µg/mL) | 10 µM (≈ 21.6 µg/mL) | 5.7% | 3.8% | 100 µM (≈ 216 µg/mL) | inactive
CC(=O)NCC(=O)N[C@@H](Cc1ccccc1)C(=O)N1Cc2ccccc2C[C@H]1C(=O)N1[C@H](C(=O)NCC(=O)N[C@@H](CN)C(=O)N2Cc3ccccc3C[C@H]2C(=O)N2[C@H](C(=O)NCC(=O)N[C@@H](Cc3ccccc3)C(=O)N3Cc4ccccc4C[C@H]3C(=O)N3[C@H](C(=O)NCC(=O)N[C@@H](CN)C(=O)N4Cc5ccccc5C[C@H]4C(=O)N[C@@H](CN)C(=O)N[C@@H](CN)C(=O)N[C@@H](CN)C(=O)N[C@@H](CN)C(N)=O)C[C@@H]4CCCC[C@@H]43)C[C@@H]3CCCC[C@@H]32)C[C@@H]2CCCC[C@@H]21 (Ac-GF[Tic][Oic]G[Dap][Tic][Oic]GF[Tic][Oic]G[Dap][Tic][Dap][Dap][Dap][Dap]-NH2) |  | 10 µM (≈ 21.9 µg/mL) | 100 µM (≈ 219 µg/mL) | 1 µM (≈ 2.19 µg/mL) |  |  | 3 µM (≈ 6.57 µg/mL) | 
CC(=O)NCCC(=O)N[C@@H](Cc1ccc(F)cc1)C(=O)N1Cc2ccccc2C[C@H]1C(=O)N1CC2CCCCC2[C@H]1C(=O)NCCC(=O)N[C@@H](CN)C(=O)N1Cc2ccccc2C[C@H]1C(=O)N1CC2CCCCC2[C@H]1C(=O)NCCC(=O)N[C@@H](Cc1ccc(F)cc1)C(=O)N1Cc2ccccc2C[C@H]1C(=O)N1CC2CCCCC2[C@H]1C(=O)NCCC(=O)N[C@@H](CN)C(=O)N1Cc2ccccc2C[C@H]1C(=O)N[C@@H](CN)C(=O)N[C@@H](CN)C(=O)N[C@@H](CN)C(=O)N[C@@H](CN)C(N)=O (some centres undefined) (Ac-[βAla][Phe(4-F)][Tic][Pro(3ξ,4ξ-(CH2)4)][βAla][Dap][Tic][Pro(3ξ,4ξ-(CH2)4)][βAla][Phe(4-F)][Tic][Pro(3ξ,4ξ-(CH2)4)][βAla][Dap][Tic][Dap][Dap][Dap][Dap]-NH2) |  | 30 µM (≈ 68.4 µg/mL) | 100 µM (≈ 228 µg/mL) | 0.3 µM (≈ 0.684 µg/mL) |  |  | 3 µM (≈ 6.84 µg/mL) | 
